# Results from the supplement of paper PMC4862054.
# Columns and labels:
# Details in all cases: incubation time: 72 h
# BT-474 [1] = assay: normalised viability (% of control), CellTiter-Blue; higher = more viable cells (about 100 = DMSO control)
# Method in brief: (§1)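 Breast cancer cell lines were treated for 72 h in 384-well format and measured by CellTiter-Blue fluorescence at 560/590 nm. Results were normalised per plate to vehicle (100) and a positive kill control (0). The entry is normalised viability at a single listed concentration of the series.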
# CAL-51 [2] = assay: as above
# Method in brief: as §1
# CAL-85-1 [3] = assay: as above
# Method in brief: as §1
# HCC1143 = assay: as above
# Method in brief: as §1
# HCC1599 [4] = assay: as above
# Method in brief: as §1
# HCC1937 [5] = assay: as above
# Method in brief: as §1
# HDQ-P1 [6] = assay: as above
# Method in brief: as §1
# MDA-MB-436 [7] = assay: as above
# Method in brief: as §1
# SK-BR-3 [8] = assay: as above
# Method in brief: as §1
# BT-474 [9] = assay: drug sensitivity score (DSS), CellTiter-Glo (DSS (AUC-based score)); higher = stronger drug effect (viability inhibition or cytotoxicity); extreme values may be limits of the assay
# Method in brief: (§2)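 Breast cancer cells were seeded into 384-well plates containing compound at 5 concentrations in 10-fold steps over a compound-specific 10,000-fold range and incubated 72 h. After CellTox Green and CellTiter-Glo readings, each plate was normalised to 0.1 % DMSO and a positive kill control. The drug sensitivity score rests on the area under the fitted dose-response curve.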
# BT-549 = assay: as above
# Method in brief: as §2
# CAL-120 = assay: as above
# Method in brief: as §2
# CAL-148 = assay: as above
# Method in brief: as §2
# CAL-51 [10] = assay: as above
# Method in brief: as §2
# CAL-85-1 [11] = assay: as above
# Method in brief: as §2
# DU-4475 = assay: as above
# Method in brief: as §2
# HCC1599 [12] = assay: as above
# Method in brief: as §2
# HCC1937 [13] = assay: as above
# Method in brief: as §2
# HDQ-P1 [14] = assay: as above
# Method in brief: as §2
# Hs578T = assay: as above
# Method in brief: as §2
# MDA-MB-231 = assay: as above
# Method in brief: as §2
# MDA-MB-436 [15] = assay: as above
# Method in brief: as §2
# MDA-MB-453 = assay: as above
# Method in brief: as §2
# MFM-223 = assay: as above
# Method in brief: as §2
# SK-BR-3 [16] = assay: as above
# Method in brief: as §2
structure (smiles),measurement,setting,value
COc1c2occc2cc2ccc(=O)oc12 [Methoxsalen],normalised viability,BT-474 [1]; 10 nM,123%
same,normalised viability,BT-474 [1]; 1000 nM,102%
same,normalised viability,BT-474 [1]; 10000 nM,117%
same,normalised viability,CAL-51 [2]; 3 nM,109%
same,normalised viability,CAL-51 [2]; 30 nM,109%
same,normalised viability,CAL-51 [2]; 100 nM,104%
same,normalised viability,CAL-85-1 [3]; 3 nM,92.9%
same,normalised viability,CAL-85-1 [3]; 30 nM,92.6%
same,normalised viability,CAL-85-1 [3]; 100 nM,92.5%
same,normalised viability,HCC1143; 10 nM,91.8%
same,normalised viability,HCC1143; 1000 nM,99.1%
same,normalised viability,HCC1143; 10000 nM,94.2%
same,normalised viability,HCC1599 [4]; 10 nM,106%
same,normalised viability,HCC1599 [4]; 1000 nM,85%
same,normalised viability,HCC1599 [4]; 10000 nM,93.5%
same,normalised viability,HCC1937 [5]; 10 nM,68.3%
same,normalised viability,HCC1937 [5]; 1000 nM,36%
same,normalised viability,HCC1937 [5]; 10000 nM,77.7%
same,normalised viability,HDQ-P1 [6]; 3 nM,115%
same,normalised viability,HDQ-P1 [6]; 30 nM,104%
same,normalised viability,HDQ-P1 [6]; 100 nM,105%
same,normalised viability,MDA-MB-436 [7]; 10 nM,90.6%
same,normalised viability,MDA-MB-436 [7]; 1000 nM,87.1%
same,normalised viability,MDA-MB-436 [7]; 10000 nM,93.8%
same,normalised viability,SK-BR-3 [8]; 10 nM,104%
same,normalised viability,SK-BR-3 [8]; 1000 nM,127%
same,normalised viability,SK-BR-3 [8]; 10000 nM,104%
Cc1nc(C(=O)NCC(=O)O)c(O)c2ccc(Oc3ccccc3)cc12 [FG-4592],drug sensitivity score,BT-474 [9],0
same,drug sensitivity score,BT-549,0
same,drug sensitivity score,CAL-120,0
same,drug sensitivity score,CAL-148,0
same,drug sensitivity score,CAL-51 [10],0
same,drug sensitivity score,CAL-85-1 [11],0
same,drug sensitivity score,DU-4475,0
same,drug sensitivity score,HCC1599 [12],0
same,drug sensitivity score,HCC1937 [13],0
same,drug sensitivity score,HDQ-P1 [14],0
same,drug sensitivity score,Hs578T,0
same,drug sensitivity score,MDA-MB-231,0
same,drug sensitivity score,MDA-MB-436 [15],0
same,drug sensitivity score,MDA-MB-453,0
same,drug sensitivity score,MFM-223,0
same,drug sensitivity score,SK-BR-3 [16],0
C=CCN(/C=C1/C(=O)O[C@H](COC)[C@@]2(C)C1=C(O)C(=O)C1=C2[C@H](OC(C)=O)C[C@]2(C)C(=O)CC[C@@H]12)CC=C [Sonolisib],drug sensitivity score,BT-474 [9],0
same,drug sensitivity score,BT-549,0.766
same,drug sensitivity score,CAL-120,0
same,drug sensitivity score,CAL-148,0
same,drug sensitivity score,CAL-51 [10],4.2
same,drug sensitivity score,CAL-85-1 [11],0
same,drug sensitivity score,DU-4475,0
same,drug sensitivity score,HCC1599 [12],0
same,drug sensitivity score,HCC1937 [13],0
same,drug sensitivity score,HDQ-P1 [14],0
same,drug sensitivity score,Hs578T,0
same,drug sensitivity score,MDA-MB-231,0
same,drug sensitivity score,MDA-MB-436 [15],0
same,drug sensitivity score,MDA-MB-453,0
same,drug sensitivity score,MFM-223,0
same,drug sensitivity score,SK-BR-3 [16],0
CC1(COc2ccc3c(c2)ncn3-c2ccc3cccc(N4CCC(N)CC4)c3n2)COC1 [Crenolanib],drug sensitivity score,BT-474 [9],4.44
same,drug sensitivity score,BT-549,7.22
same,drug sensitivity score,CAL-120,0
same,drug sensitivity score,CAL-148,4.01
same,drug sensitivity score,CAL-51 [10],6.45
same,drug sensitivity score,CAL-85-1 [11],4.49
same,drug sensitivity score,DU-4475,4.23
same,drug sensitivity score,HCC1599 [12],0.696
same,drug sensitivity score,HCC1937 [13],0.864
same,drug sensitivity score,HDQ-P1 [14],3.33
same,drug sensitivity score,Hs578T,4.07
same,drug sensitivity score,MDA-MB-231,4.35
same,drug sensitivity score,MDA-MB-436 [15],4.37
same,drug sensitivity score,MDA-MB-453,3.06
same,drug sensitivity score,MFM-223,0
same,drug sensitivity score,SK-BR-3 [16],4.21
C=CCN(/C=C1/C(=O)O[C@H](COC)[C@@]2(C)C1=C(O)C(=O)C1=C2[C@H](OC(C)=O)C[C@]2(C)C(=O)CC[C@@H]12)CC=C [PX-866],normalised viability,BT-474 [1]; 10 nM,118%
same,normalised viability,BT-474 [1]; 1000 nM,87.3%
same,normalised viability,BT-474 [1]; 10000 nM,41.9%
same,normalised viability,CAL-51 [2]; 3 nM,118%
same,normalised viability,CAL-51 [2]; 30 nM,107%
same,normalised viability,CAL-51 [2]; 100 nM,103%
same,normalised viability,CAL-85-1 [3]; 3 nM,111%
same,normalised viability,CAL-85-1 [3]; 30 nM,97.4%
same,normalised viability,CAL-85-1 [3]; 100 nM,102%
same,normalised viability,HCC1143; 10 nM,91.6%
same,normalised viability,HCC1143; 1000 nM,80.8%
same,normalised viability,HCC1143; 10000 nM,60.8%
same,normalised viability,HCC1599 [4]; 10 nM,98.3%
same,normalised viability,HCC1599 [4]; 1000 nM,105%
same,normalised viability,HCC1599 [4]; 10000 nM,78.3%
same,normalised viability,HCC1937 [5]; 10 nM,106%
same,normalised viability,HCC1937 [5]; 1000 nM,73.6%
same,normalised viability,HCC1937 [5]; 10000 nM,59.7%
same,normalised viability,HDQ-P1 [6]; 3 nM,113%
same,normalised viability,HDQ-P1 [6]; 30 nM,128%
same,normalised viability,HDQ-P1 [6]; 100 nM,114%
same,normalised viability,MDA-MB-436 [7]; 10 nM,93.3%
same,normalised viability,MDA-MB-436 [7]; 1000 nM,90.2%
same,normalised viability,MDA-MB-436 [7]; 10000 nM,62%
same,normalised viability,SK-BR-3 [8]; 10 nM,109%
same,normalised viability,SK-BR-3 [8]; 1000 nM,61.7%
same,normalised viability,SK-BR-3 [8]; 10000 nM,28.5%
CC[C@H](CO)Nc1nc(NCc2ccccc2)c2ncn(C(C)C)c2n1 [Seliciclib],drug sensitivity score,BT-474 [9],0.844
same,drug sensitivity score,BT-549,1.15
same,drug sensitivity score,CAL-120,0
same,drug sensitivity score,CAL-148,0
same,drug sensitivity score,CAL-51 [10],2.74
same,drug sensitivity score,CAL-85-1 [11],0
same,drug sensitivity score,DU-4475,0
same,drug sensitivity score,HCC1599 [12],0
same,drug sensitivity score,HCC1937 [13],0
same,drug sensitivity score,HDQ-P1 [14],0
same,drug sensitivity score,Hs578T,0
same,drug sensitivity score,MDA-MB-231,0
same,drug sensitivity score,MDA-MB-436 [15],0
same,drug sensitivity score,MDA-MB-453,0
same,drug sensitivity score,MFM-223,0
same,drug sensitivity score,SK-BR-3 [16],0
CN(C)C(=N)NC(=N)N [Metformin],drug sensitivity score,BT-474 [9],0
same,drug sensitivity score,BT-549,0
same,drug sensitivity score,CAL-120,0
same,drug sensitivity score,CAL-148,0
same,drug sensitivity score,CAL-51 [10],6.92
same,drug sensitivity score,CAL-85-1 [11],0
same,drug sensitivity score,DU-4475,0
same,drug sensitivity score,HCC1599 [12],0
same,drug sensitivity score,HCC1937 [13],0
same,drug sensitivity score,HDQ-P1 [14],0
same,drug sensitivity score,Hs578T,0
same,drug sensitivity score,MDA-MB-231,0
same,drug sensitivity score,MDA-MB-436 [15],0
same,drug sensitivity score,MDA-MB-453,0
same,drug sensitivity score,MFM-223,0
same,drug sensitivity score,SK-BR-3 [16],0
CC(C)(C)c1nc(-c2cccc(NS(=O)(=O)c3c(F)cccc3F)c2F)c(-c2ccnc(N)n2)s1 [Dabrafenib],drug sensitivity score,BT-474 [9],0
same,drug sensitivity score,BT-549,0
same,drug sensitivity score,CAL-120,8.71
same,drug sensitivity score,CAL-148,0
same,drug sensitivity score,CAL-51 [10],0
same,drug sensitivity score,CAL-85-1 [11],0
same,drug sensitivity score,DU-4475,19
same,drug sensitivity score,HCC1599 [12],0
same,drug sensitivity score,HCC1937 [13],0
same,drug sensitivity score,HDQ-P1 [14],0
same,drug sensitivity score,Hs578T,0.389
same,drug sensitivity score,MDA-MB-231,0
same,drug sensitivity score,MDA-MB-436 [15],0
same,drug sensitivity score,MDA-MB-453,0
same,drug sensitivity score,MFM-223,0
same,drug sensitivity score,SK-BR-3 [16],0
O=C(O)CNC(=O)c1c(O)c2ccccc2n(Cc2ccccc2)c1=O [IOX-2],drug sensitivity score,BT-474 [9],0
same,drug sensitivity score,BT-549,0.135
same,drug sensitivity score,CAL-120,0
same,drug sensitivity score,CAL-148,0
same,drug sensitivity score,CAL-51 [10],3.96
same,drug sensitivity score,CAL-85-1 [11],0
same,drug sensitivity score,DU-4475,0
same,drug sensitivity score,HCC1599 [12],0
same,drug sensitivity score,HCC1937 [13],0
same,drug sensitivity score,HDQ-P1 [14],0
same,drug sensitivity score,Hs578T,0
same,drug sensitivity score,MDA-MB-231,0
same,drug sensitivity score,MDA-MB-436 [15],0
same,drug sensitivity score,MDA-MB-453,0
same,drug sensitivity score,MFM-223,0
same,drug sensitivity score,SK-BR-3 [16],0
CN[C@@H](C)C(=O)N[C@H]1CN(C(=O)CC(C)C)CC[C@H]2CC[C@@H](C(=O)NC(c3ccccc3)c3ccccc3)N2C1=O [AT-406],drug sensitivity score,BT-474 [9],20.1
same,drug sensitivity score,BT-549,17.3
same,drug sensitivity score,CAL-120,0
same,drug sensitivity score,CAL-148,0
same,drug sensitivity score,CAL-51 [10],0
same,drug sensitivity score,CAL-85-1 [11],7.99
same,drug sensitivity score,DU-4475,0
same,drug sensitivity score,HCC1599 [12],0
same,drug sensitivity score,HCC1937 [13],0
same,drug sensitivity score,HDQ-P1 [14],2.18
same,drug sensitivity score,Hs578T,0
same,drug sensitivity score,MDA-MB-231,16
same,drug sensitivity score,MDA-MB-436 [15],0
same,drug sensitivity score,MDA-MB-453,4.36
same,drug sensitivity score,MFM-223,0
same,drug sensitivity score,SK-BR-3 [16],0
